In article PMC7822874, “Chemoprotective antimalarials identified through quantitative high-throughput screening of Plasmodium blood and liver stage parasites” (Scientific Reports, 2021):
“And” between values parts separate entries of the source, which are not always exact repeats. Equal values may be shown once. Read-outs that look alike come from different tables or passages of the source.

Key:
[1] = biological target: Firefly luciferase (Fluc, EC 1.13.12.7) (Photinus pyralis, UniProt P08659); assay: biochemical; parameters: single determination (the paper says generally: 'qHTS assays were performed in a single replicate with a 7- to 11-point dose response format'; it is not stated for this counterscreen itself)
Sequence of Firefly luciferase (Fluc, EC 1.13.12.7) (P08659 whole entry): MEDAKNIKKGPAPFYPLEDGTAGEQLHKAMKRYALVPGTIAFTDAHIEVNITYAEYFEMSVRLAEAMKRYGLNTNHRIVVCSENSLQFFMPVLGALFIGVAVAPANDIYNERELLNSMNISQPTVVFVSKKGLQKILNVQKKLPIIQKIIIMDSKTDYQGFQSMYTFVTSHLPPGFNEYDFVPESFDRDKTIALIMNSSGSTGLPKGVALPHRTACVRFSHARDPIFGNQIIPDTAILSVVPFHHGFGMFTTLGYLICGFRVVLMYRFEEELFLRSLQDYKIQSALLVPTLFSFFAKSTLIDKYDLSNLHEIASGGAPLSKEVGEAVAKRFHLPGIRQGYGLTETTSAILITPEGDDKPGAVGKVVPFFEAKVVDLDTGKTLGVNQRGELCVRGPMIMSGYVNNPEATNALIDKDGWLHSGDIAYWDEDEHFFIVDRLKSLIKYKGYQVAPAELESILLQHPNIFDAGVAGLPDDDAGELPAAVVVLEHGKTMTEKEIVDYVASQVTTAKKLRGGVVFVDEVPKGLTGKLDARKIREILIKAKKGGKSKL

[2] = tested on: P. falciparum Dd2 Cytb V259L; assay: SYBR Green ABS proliferation assay, NCGC00473217 selected clone F06; assay type: cell-based, Plasmodium falciparum; settings: Plasmodium falciparum
Outline: (§1)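 Proliferation of cytb-mutant Dd2 clones was measured by SYBR Green-I fluorescence at 72 h, normalized to controls.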

[3] = tested on: P. falciparum Dd2 Cytb F123L; assay: SYBR Green ABS proliferation assay, NCGC00473217 selected clone G08; assay type: cell-based, Plasmodium falciparum; settings: Plasmodium falciparum
Outline: as §1

[4] = tested on: T1, Plasmodium falciparum Dd2-attB (parental line), asexual blood stages; assay: microbe, parasite or virus in culture; parameters: species or system P. falciparum Dd2-attB in human erythrocytes; SYBR Green-I proliferation assay, Dd2-attB parental line, asexual blood stages; settings: Plasmodium falciparum, DD2, Erythrocyte, 72 h, read-out: Calculated / Average Log AC50 (M), mean of replicates, 72 h (converted)
T1 construct: Dd2-attB, the isogenic parental line

[5] = tested on: P. berghei-ANKA-GFP-LucCON liver stage parasites in HepG2-A16-CD81EGFP cells; assay: P. berghei liver stage Pb-Luc assay, Method 1 (UCSD, 1536-well); assay type: cell-based, Plasmodium berghei; settings: Method 1; for Max Resp (signal direction of the dose response): Decrease = decreasing P. berghei viability with dose, Increase = increasing signal, Inactive = no dose response
[6] = tested on: T2, Plasmodium falciparum Dd2-attB-ScDHODH (transgenic line expressing yeast DHODH), asexual blood stages; assay: organism not typed; parameters: replicate k of 3 (each line is one of three independent assays; the three lines of one compound and parasite line follow each other); settings: 72 h, n = 1; for AC50: read-out: Individual replicates / Log AC50 (converted)
T2 construct: Dd2-attB-ScDHODH, the transgenic line that expresses yeast DHODH
Outline: (§2)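 Three independent runs, compound subset only; parental vs ScDHODH line compared by two-sided Student's t-test.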

[7] = tested on: T1, Plasmodium falciparum Dd2-attB (parental line), asexual blood stages; assay: microbe, parasite or virus in culture; parameters: replicate k of 3 (each line is one of three independent assays; the three lines of one compound and parasite line follow each other); settings: n = 1; for Individual replicates / Log AC50 (M): 72 h; for AC50: Plasmodium falciparum, DD2, 72 h, read-out: Individual replicates / Log AC50 (converted)
Outline: as §2

[8] = tested on: luciferase-expressing P. berghei liver stage parasites in HepG2 cells; assay: Inhibition of liver-stage development assay (ILSDA), Method 2 (WRAIR, 96-well); assay type: cell-based, Plasmodium berghei
[9] = tested on: Plasmodium falciparum Dd2 asexual blood stage parasites; assay: microbe, parasite or virus in culture; parameters: species or system Plasmodium falciparum Dd2 in human erythrocytes; single determination (one 11-point concentration-response curve); settings: Plasmodium falciparum, DD2, Erythrocyte, 72 h; read-out: AC50
[10] = tested on: P. falciparum Dd2 Cytb G131S; assay: SYBR Green ABS proliferation assay, NCGC00374598 selected clone C11; assay type: cell-based, Plasmodium falciparum; settings: Plasmodium falciparum, DD2, […]; averaged from three independent replicates; top concentration 29 µM; read-out: Average AC50 (Log[M]), NCGC00374598 clone C11 (Cytb G131S) (converted)
Outline: as §1

[11] = tested on: P. falciparum Dd2 (clone B2) asexual blood stage parasites; assay: P. falciparum Dd2 asexual blood stage SYBR Green-I 72 h proliferation assay (qHTS); assay type: cell-based, Plasmodium falciparum; settings: Plasmodium falciparum, DD2, Dd2 parental; Hill fit, averaged from three independent replicates; top concentration 29 µM; read-out: Average AC50 (Log[M]), Dd2 (converted)
[12] = tested on: P. falciparum Dd2 Cytb A122D; assay: SYBR Green ABS proliferation assay, NCGC00473217 selected clone F12; assay type: cell-based, Plasmodium falciparum; settings: Plasmodium falciparum, DD2, […]; averaged from three independent replicates; top concentration 29 µM; read-out: Average AC50 (Log[M]), NCGC00473217 clone F12 (Cytb A122D) (converted)
Outline: as §1

[13] = Hill fit, 50% of maximum activity response, read-out: AC50
[14] = log10 of molar AC50 from Hill fit
[15] = Plasmodium berghei, Hill fit, 50% of maximum activity response, read-out: AC50
[16] = Plasmodium berghei, log10 of molar AC50 from Hill fit, read-out: Log AC50 (converted)

| SMILES | AC50 [4] | Individual replicates / Log AC50 (M) [6] | Individual replicates / Log AC50 (M) [7] | AC50 [6] | AC50 [7] | also measured |
| --- | --- | --- | --- | --- | --- | --- |
| COC(=O)c1nn(-c2ccc3c(c2)CCN3C(C)=O)cc1O [MLS000565173-01] |  |  |  |  |  | AC50 [1]: 10.8 µM |
| O=C1c2cnc(-c3cc4ccccc4o3)nc2OCCN1Cc1ccccc1 [NCGC00413600-01] |  |  |  |  |  | AC50 [1]: 11.1 µM |
| Cc1cn2c(=O)cc(COC(=O)c3cccc(NC(=O)COc4ccccc4Cl)c3)nc2s1 [NCGC00130619-01] |  |  |  |  |  | AC50 [1]: 0.0341 µM |
| O=C(COc1ccc2ccccc2c1)Nc1nccs1 [MLS000718732-01] |  |  |  |  |  | AC50 [1]: 8.57 µM |
| Cc1ccc(C(=O)Nc2sc3c(c2C(=O)O)CCCCC3)o1 [MLS000060651-01] |  |  |  |  |  | AC50 [1]: 10.8 µM |
| CC(C)(C)OC(=O)N1CCc2nc(C3CC3)nc(O)c2CC1 [NCGC00510066-01] | 8.94e-06 M |  |  |  |  | AC50 ([2]; DD2, cytochrome b mutant line, third value triple, c9, […], read-out: log AC50, mean (converted)): 8.93e-09 M; AC50 ([3]; DD2, cytochrome b mutant line, fifth value triple, c15, […], read-out: log AC50, mean (converted)): 2.99e-06 M |
| O=C(Cc1ccc(O)cc1)N1CC(CNc2ccccc2)C2(C1)CN(c1ccccc1)C2 (stereo not shown) [NCGC00415859-01] | 1.63e-07 M | -6.4873 Log AC50 (M) and -6.7373 Log AC50 (M) and -6.8873 Log AC50 (M) | -6.8373 Log AC50 (M) and -6.9373 Log AC50 (M) and -6.5873 Log AC50 (M) |  |  | Max Resp (signal direction of the dose response) [5]: Decrease; AC50 [5, 13]: 0.631 µM; Log AC50 (M) [5, 14]: -6.200 M; AC50 [5, 15]: 0.447 µM; AC50 [5, 16]: 0.447 µM; Activity direction (Decrease / Inactive) ([8]; P. berghei liver stage, Method 2, dose response): Inactive; AC50 [9]: 0.243 µM |
| CCCOC(c1cc2nccc(C(=O)O)c2[nH]1)c1ccccc1Cl (stereo not shown) [NCGC00381656-01] | 1.04e-05 M | -4.9486 Log AC50 (M) | -5.0486 Log AC50 (M) and -4.7986 Log AC50 (M) | 15.9 µM | 7.97 µM |  |
| CC(NCCN1CCCCC1)c1cnn(-c2cc(CO)ccn2)c1-c1cccc(-c2ccccc2)c1 (stereo not shown) [NCGC00479100-01] | 3.99e-06 M |  |  | 8.94 µM | 8.94 µM |  |
| O=C(O)c1c2ccc(C(=O)N3CCOCC3)cc2n2ccccc12 [NCGC00390822-01] | 2e-06 M | -5.5986 Log AC50 (M) | -5.7986 Log AC50 (M) and -5.7486 Log AC50 (M) | 2.52 µM | 2.83 µM |  |
| COC(=O)c1ccc(O)c2ncc(N3CCN(C)CC3)cc12 [NCGC00241034-01] | 6.09e-06 M | -5.2486 Log AC50 (M) and -5.2986 Log AC50 (M) and -4.8486 Log AC50 (M) | -5.2986 Log AC50 (M) and -5.0486 Log AC50 (M) |  | 5.03 µM |  |
| CCCN1C(CC(C)C)=N[S+](=O)([O-])c2cc(NC(=O)C3CC3)ccc21 [NCGC00510045-01] | 1.22e-06 M | -5.2986 Log AC50 (M) and -5.4486 Log AC50 (M) | -5.8486 Log AC50 (M) | 3.99 µM | 0.894 µM | AC50 [10]: 3.99e-06 M; AC50 [11]: 4.32e-06 M; AC50 ([2]; DD2, […], averaged from three independent replicates, top concentration 29 µM, read-out: Average AC50 (Log[M]), NCGC00473217 clone F06 (Cytb V259L) (converted)): 3.05e-06 M; AC50 ([3]; DD2, […], averaged from three independent replicates, top concentration 29 µM, read-out: Average AC50 (Log[M]), NCGC00473217 clone G08 (Cytb F123L) (converted)): 1.12e-05 M; AC50 [12]: 4.32e-06 M |
| Oc1ncnc2sc(C(OCCN3CCCCC3)c3ccccc3Cl)cc12 (stereo not shown) [NCGC00481361-01] | 1e-05 M | -5.0486 Log AC50 (M) | -5.0986 Log AC50 (M) | 15.9 µM | 8.94 µM |  |
| CCOC(=O)c1c2ccc(C(=O)N3CCOCC3)cc2n2ccccc12 [NCGC00390098-01] | 1.26e-05 M |  | -5.0486 Log AC50 (M) | 7.1 µM | 14.2 µM |  |
| Oc1ccc(CCc2ccccc2F)c2cccnc12 [NCGC00184905-01] | 1.31e-05 M |  | -5.1986 Log AC50 (M) and -4.7486 Log AC50 (M) | 15.9 µM |  |  |
| O=[N+]([O-])c1ccccc1NCc1ccc(O)c2ncccc12 [NCGC00184896-01] | 9.65e-06 M | -5.0486 Log AC50 (M) | -4.7986 Log AC50 (M) and -5.0986 Log AC50 (M) and -5.1486 Log AC50 (M) | 12.6 µM |  |  |
| Cc1ccccc1CN1CCN(c2cnc3c(O)ccc(C(=O)O)c3c2)CC1 [NCGC00249382-01] | 1.65e-05 M |  |  | 15.9 µM | 14.2 µM |  |
| CC(C)(C)OC(=O)NC1CCN(c2cc(-c3ccc(Cl)cc3)[nH]n2)C1 (stereo not shown) [NCGC00490648-01] | 1.59e-05 M |  |  | 10 µM | 11.3 µM |  |
| CCN(CCN(C)C)C(=O)c1cc(OCc2ccc(Cl)cc2C)n(-c2cc(C#N)ccn2)n1 [NCGC00493248-01] | 1.04e-05 M | -4.9486 Log AC50 (M) and -4.8486 Log AC50 (M) | -5.0486 Log AC50 (M) and -5.0986 Log AC50 (M) | 11.3 µM | 15.9 µM |  |
| COc1ccc(-n2ncc(C(=O)N3CCc4ccccc4C3)c2C2CCN(C(=O)OC(C)(C)C)CC2)cc1 [NCGC00127123-02] | 7.97e-06 M | -4.7986 Log AC50 (M) and -4.8486 Log AC50 (M) | -5.2486 Log AC50 (M) and -4.9986 Log AC50 (M) | 14.2 µM | 8.94 µM |  |
| O=C1C(c2ccc(C(F)(F)F)cc2)=C(Nc2ccc(Cl)cc2)c2ccccc21 [NCGC00107304-01] | 7.1e-07 M | -5.0986 Log AC50 (M) and -5.1486 Log AC50 (M) and -5.3986 Log AC50 (M) | -6.0986 Log AC50 (M) |  | 0.564 µM | Max Resp (signal direction of the dose response) [5]: Decrease; AC50 [5, 13]: 0.282 µM; Log AC50 (M) [5, 14]: -6.550 M; AC50 [5, 15]: 0.158 µM; AC50 [5, 16]: 0.158 µM; Max Resp (signal direction of the dose response) ([8]; Method 2, Decrease = decreasing P. berghei viability with dose, Increase = increasing signal, Inactive = no dose response): Inactive; AC50 [9]: 1.5 µM |
| O=C(c1cccc(-c2cc(O)c3ncccc3c2)c1)N1CCN(CCCN2CCOCC2)CC1 [NCGC00247764-01] | 2e-05 M |  |  | 17.8 µM | 17.8 µM |  |
